This assay concerns the target T1, recombinant JAK2 (Homo sapiens, UniProt O60674).
T1 construct: purchased Upstate Cell Signaling Solutions
As to the kind of experiment: IC50 value determinations for Jak2 kinase, luminescence-based kinase assay (Kinase-Glo). Format: biochemical. The note with it: Table 1. (In general: Kinase-Glo measures the ATP left after a reaction by luminescence.)

Usually pIC50 stands for −log10 of the IC50, conventionally taken in molar units.

pIC50: −log10 of the molar value. Counter-ions that a name gives are not always drawn.

T1 sequence (O60674 808-1132 limits assumed): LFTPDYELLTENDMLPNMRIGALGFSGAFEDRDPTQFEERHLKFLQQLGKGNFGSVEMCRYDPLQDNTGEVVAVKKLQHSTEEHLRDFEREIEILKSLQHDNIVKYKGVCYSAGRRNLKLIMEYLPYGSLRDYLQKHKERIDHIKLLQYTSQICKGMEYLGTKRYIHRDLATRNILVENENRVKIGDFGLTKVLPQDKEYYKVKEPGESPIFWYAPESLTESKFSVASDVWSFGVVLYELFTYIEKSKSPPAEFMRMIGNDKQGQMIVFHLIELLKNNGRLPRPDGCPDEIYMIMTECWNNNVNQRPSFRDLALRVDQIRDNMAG
Procedure: The IC50 values for compounds were determined using a luminescence-based kinase assay with recombinant JAK2 obtained from Upstate Cell Signaling Solutions. In white, flat bottom, 96-well plates (Nunc) parallel assays were run at room temperature at a final volume of 50 μL.
Two control reactions were also ran: one reaction containing no compound and the second containing neither inhibitor nor peptide substrate. IC50 values were derived from experimental data using the non-linear curve fitting capabilities of Prism (Version 4; GraphPad Software).

In the case of `Cc1cc(Nc2nc(Nc3ccc(OC4CCNCC4)cc3)ncc2C)ccc1Cl` [N4-(4-Chloro-3-methyl-phenyl)-5-methyl-N2-[4-(piperidin-4-yloxy)-phenyl]-pyrimidine-2,4-diamine], the pIC50 is 8.08.

`Cc1cnc(Nc2ccc(OC3CCNCC3)cc2)nc1Nc1ccc(Cl)c(C(F)(F)F)c1` [N4-(4-Chloro-3-trifluoromethyl-phenyl)-5-methyl-N2-[4-(piperidin-4-yloxy)-phenyl]-pyrimidine-2,4-diamine]: the pIC50 was 7.94.

Turning to `Cc1cnc(Nc2ccc(OCCN3CCCC3)cc2)nc1Nc1ccc(Cl)cc1` [N4-(4-Chloro-phenyl)-5-methyl-N2-[4-(2-pyrrolidin-1-yl-ethoxy)-phenyl]-pyrimidine-2,4-diamine trifluoroacetate], the pIC50 was 7.74.

With `COc1cc(Nc2nc(Nc3ccc(OCCN4CCCC4)cc3)ncc2C)ccc1F` [N4-(4-Fluoro-3-methoxy-phenyl)-5-methyl-N2-[4-(2-pyrrolidin-1-yl-ethoxy)-phenyl]-pyrimidine-2,4-diamine], the pIC50 is 7.83.

Turning to `COc1ccc(Nc2ccnc(Nc3ccc(OCCN4CCCC4)cc3)n2)cc1` [N4-(4-Methoxy-phenyl)-N2-[4-(2-pyrrolidin-1-yl-ethoxy)-phenyl]-pyrimidine-2,4-diamine trifluoroacetate], the pIC50 was 5.36.

Take `Cc1cnc(Nc2ccc(CN3CCNCC3)cc2)nc1Nc1ccc(Cl)c2[nH]ccc12` [N4-(7-chloro-1H-indol-4-yl)-5-methyl-N2-(4-((piperazin-1-yl)methyl)phenyl)pyrimidine-2,4-diamine Hydrochloride]: the pIC50 was 6.16.

For the compound `Cc1cnc(Nc2ccc(N3CCN(C)CC3)cc2)nc1Nc1cccc2c1OCO2` [N4-Benzo[1,3]dioxol-4-yl-5-methyl-N2-[4-(4-methyl-piperazin-1-yl)-phenyl]-pyrimidine-2,4-diamine], the pIC50 is 7.85.

Regarding `COc1cc(Nc2ncc(C)c(Nc3cccc4c3OCO4)n2)ccc1OCCN1CCCC1` [N4-Benzo[1,3]dioxol-4-yl-N2-[3-methoxy-4-(2-pyrrolidin-1-yl-ethoxy)-phenyl]-5-methyl-pyrimidine-2,4-diamine], the pIC50 is 8.03.

Take `Cc1cnc(Nc2ccc(OCCN3CCCC3)cc2)nc1Nc1ccc2c(c1)OCO2` [N4-Benzo[1,3]dioxol-5-yl-5-methyl-N2-[4-(2-pyrrolidin-1-yl-ethoxy)-phenyl]-pyrimidine-2,4-diamine trifluoroacetate]: the pIC50 was 7.06.

Consider `Cc1cnc(Nc2ccc(OCCN3CCCC3)cc2)nc1Nc1csc2ccccc12` [N4-Benzo[b]thiophen-3-yl-5-methyl-N2-[4-(2-pyrrolidin-1-yl-ethoxy)-phenyl]-pyrimidine-2,4-diamine], for which the negative logarithm of the IC50 (pIC50) is 7.91.

As for `Cc1cnc(Nc2ccc(OCCN3CCCC3)cc2)nc1Nc1ccc2sccc2c1` [N4-Benzo[b]thiophen-5-yl-5-methyl-N2-[4-(2-pyrrolidin-1-yl-ethoxy)-phenyl]-pyrimidine-2,4-diamine], the pIC50 was 7.55.

As for `Cc1cnc(Nc2ccc(N3CCN(C)CC3)cc2)nc1Nc1cccc(S(=O)(=O)N2C(C)CCC2C)c1` (stereo not drawn) [N4-[3-(2,5-Dimethyl-pyrrolidine-1-sulfonyl)-phenyl]-5-methyl-N2-[4-(4-methyl-piperazin-1-yl)-phenyl]-pyrimidine-2,4-diamine Hydrochloride], the pIC50 is 7.73.

Turning to `CCN(CC)S(=O)(=O)c1cccc(Nc2nc(Nc3ccc(N4CCN(C)CC4)cc3)ncc2C)c1` [N,N-Diethyl-3-{5-methyl-2-(4-(4-methyl-piperazin-1-yl)-phenylamino]-pyrimidin-4-ylamino}-benzenesulfonamide], the pIC50 was 7.22.

As for `Cc1cnc(Nc2ccc(N3CCN(C)CC3)cc2)nc1Nc1cccc(S(=O)(=O)N(C)C)c1` [N,N-Dimethyl-3-{5-methyl-2-[4-(4-methyl-piperazin-1-yl)-phenylamino]-pyrimidin-4-ylamino}-benzenesulfonamide], the pIC50 was 8.02.

For `CC(=O)Nc1cccc(Nc2nc(Nc3ccc(OC4CCNCC4)cc3)ncc2C)c1C` [N-(2-Methyl-3-(5-methyl-2-[4-(piperidin-4-yloxy)-phenylamino]-pyrimidin-4-ylamino}-phenyl)-acetamide], the pIC50 is 6.84.

Regarding `CC(=O)Nc1cccc(Nc2nc(Nc3ccc(OC4CCNCC4)cc3)ncc2C)c1` [N-(3-{5-Methyl-2-[4-(piperidin-4-yloxy)-phenylamino]-pyrimidin-4-ylamino}-phenyl)-acetamide], the pIC50 was 6.86.

For `c1ccc(Cc2ccnc(Nc3ccc(OCCN4CCCC4)cc3)n2)cc1` [N-(4-(2-(pyrrolidin-1-yl)ethoxy)phenyl)-4-benzylpyrimidin-2-amine], the pIC50 is 6.15.

`Cc1cnc(Nc2ccc(N3CCN(C)CC3)cc2)nc1Nc1cccc(S(=O)(=O)NC2CCCCC2)c1` [N-Cyclohexyl-3-{5-methyl-2-[4-(4-methyl-piperazin-1-yl)-phenylamino)-pyrimidin-4-ylamino}-benzenesulfonamide]: the pIC50 was 7.40.

For `Cc1cnc(Nc2ccc(N3CCN(C)CC3)cc2)nc1Nc1cccc(S(=O)(=O)NC2CCCC2)c1` [N-Cyclopentyl3-{5-Methyl-2-[4-(4-methyl-piperazin-1-yl)-phenylamino]-pyrimidine-4-ylamino}-benzenesulfonamide Hydrochloride], the pIC50 was 7.70.

On to `Cc1cnc(Nc2ccc(N3CCN(C)CC3)cc2)nc1Nc1cccc(C(=O)NC(C)C)c1` [N-Isopropyl-3-{5-methyl-2-[4-(4-methyl-piperazin-1-yl)-phenylamino]-pyrimidin-4-ylamino}-benzamide], for which the pIC50 is 6.27.

For `Cc1cnc(Nc2ccc(N3CCN(C)CC3)cc2)nc1Nc1cccc(S(=O)(=O)NC(C)C)c1` [N-Isopropyl-3-{5-methyl-2-[4-(4-methyl-piperazin-1-yl)-phenylamino]-pyrimidin-4-ylamino}-benzenesulfonamide], the pIC50 was 7.93.

In the case of `CNC(=O)c1cccc(Nc2nc(Nc3ccc(OCCN4CCCC4)cc3)ncc2C)c1` [N-Methyl-3-{5-methyl-2-[4-(2-pyrrolidin-1-yl-ethoxy)-phenylamino]-pyrimidin-4-ylamino}-benzamide], the pIC50 is 6.59.

Take `CNS(=O)(=O)c1cccc(Nc2nc(Nc3ccc(N4CCN(C)CC4)cc3)ncc2C)c1` [N-Methyl-3-{5-methyl-2-[4-(4-methyl-piperazin-1-yl)-phenylamino]-pyrimidin-4-ylamino}-benzenesulfonamide]: the pIC50 is 7.79.

Consider `Cc1ccc(Nc2nc(Nc3ccc(OCCN4CCCC4)cc3)ncc2C)cc1S(=O)(=O)NC(C)(C)C` [N-tert-Butyl-2-methyl-5-{5-methyl-2-[4-(2-pyrrolidin-1-yl-ethoxy)-phenylamino]-pyrimidin-4-ylamino}-benzenesulfonamide], for which the pIC50 is 7.35.

For `Cc1cnc(Nc2cccc(N3CCN(CCO)CC3)c2)nc1Nc1cccc(S(=O)(=O)NC(C)(C)C)c1` [N-tert-Butyl-3-(2-{3-[4-(2-hydroxy-ethyl)-piperazin-1-yl]-phenylamino}-[5-methyl-pyrimidin-4-ylamino]-benzenesulfonamide Hydrochloride], the pIC50 was 7.39.

Turning to `Cc1cnc(Nc2ccc(N3CCN(CCO)CC3)cc2)nc1Nc1cccc(S(=O)(=O)NC(C)(C)C)c1` [N-tert-Butyl-3-(2-{4-[4-(2-hydroxy-ethyl)-piperazin-1-yl]-phenylamino)-[5-methyl-pyrimidin-4-ylamino]-benzenesulfonamide Hydrochloride], the pIC50 is 8.15.

On to `Cc1cnc(Nc2cccc(CN3CCOCC3)c2)nc1Nc1cccc(S(=O)(=O)NC(C)(C)C)c1` [N-tert-Butyl-3-(5-methyl-2-(3-morpholin-4-ylmethyl-phenylamino)-pyrimidin-4-ylamino]-benzenesulfonamide], for which the pIC50 is 8.15.

Consider `Cc1cnc(Nc2ccc(OC3CCNCC3)cc2)nc1Nc1cccc(S(=O)(=O)NC(C)(C)C)c1` [N-tert-Butyl-3-(5-methyl-2-[4-(piperidin-4-yloxy)-phenylamino]-pyrimidin-4-ylamino}-benzenesulfonamide], for which the pIC50 was 8.14.

As to `Cc1cnc(Nc2ccc(-n3ccnc3)cc2)nc1Nc1cccc(S(=O)(=O)NC(C)(C)C)c1` [N-tert-Butyl-3-[2-(4-imidazol-1-yl-phenylamino)-5-methyl-pyrimidin-4-ylamino]-benzenesulfonamide], the pIC50 is 7.91.

Regarding `Cc1cnc(Nc2ccc(Cn3ccnc3)cc2)nc1Nc1cccc(S(=O)(=O)NC(C)(C)C)c1` [N-tert-Butyl-3-[2-(4-imidazol-1-ylmethyl-phenylamino)-5-methyl-pyrimidin-4-ylamino]-benzenesulfonamide], the pIC50 was 8.07.

As to `Cc1cnc(Nc2cccc(N3CCNCC3)c2)nc1Nc1cccc(S(=O)(=O)NC(C)(C)C)c1` [N-tert-Butyl-3-[5-methyl-2-(3-piperazin-1-yl-phenylamino)-pyrimidin-4-ylamino]-benzenesulfonamide Hydrochloride], the pIC50 is 7.74.

As for `Cc1cnc(Nc2ccc(-n3cncn3)cc2)nc1Nc1cccc(S(=O)(=O)NC(C)(C)C)c1` [N-tert-Butyl-3-[5-methyl-2-(4-[1,2,4]triazol-1-yl-phenylamino)-pyrimidin-4-ylamino]-benzenesulfonamide], the pIC50 was 7.38.

As to `Cc1cnc(Nc2ccc(Cn3cncn3)cc2)nc1Nc1cccc(S(=O)(=O)NC(C)(C)C)c1` [N-tert-Butyl-3-[5-methyl-2-(4-[1,2,4]triazol-1-ylmethyl-phenylamino)-pyrimidin-4-ylamino]-benzenesulfonamide], the pIC50 is 7.45.

With `Cc1cnc(Nc2ccc(N3CCOCC3)cc2)nc1Nc1cccc(S(=O)(=O)NC(C)(C)C)c1` [N-tert-Butyl-3-[5-methyl-2-(4-morpholin-4-yl-phenylamino)-pyrimidin-4-ylamino]-benzenesulfonamide], the pIC50 is 7.92.

As for `Cc1cnc(Nc2ccc(CN3CCOCC3)cc2)nc1Nc1cccc(S(=O)(=O)NC(C)(C)C)c1` [N-tert-Butyl-3-[5-methyl-2-(4-morpholin-4-ylmethyl-phenylamino)-pyrimidin-4-ylamino]-benzenesulfonamide], the pIC50 is 7.90.

As for `Cc1cnc(Nc2ccc(N3CCNCC3)cc2)nc1Nc1cccc(S(=O)(=O)NC(C)(C)C)c1` [N-tert-Butyl-3-[5-methyl-2-(4-piperazin-1-yl-phenylamino)-pyrimidin-4-ylamino]-benzenesulfonamide Hydrochloride], the pIC50 was 8.12.

The values are drawn from patent US8604042B2, “Bi-aryl meta-pyrimidine inhibitors of kinases” (TargeGen, Inc., priority 2005, dated 2013).
